Measurements as given in the supplement of paper PMC11208160.

Assay: recombinant UMI read abundance after kanamycin selection (control-corrected) (log10(CPM+1)); higher = more efficient recombination; extreme values may be limits of the assay; sequences stand for … in AGTGCAGAGAAAATCGGCCAGTTTTCTCTGCCTGCAGTCCGCATGCCGTGGGACCCCTTGGGTTCTAACCTGTTGCCTAGATTTATGCAGCGGACTGCCTTTCTCCCAAAGTGATAAACCGG…AGGTTGGTTTCACT; site = the 11-nt donor
Protocol: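 Pooled E. coli donor-specificity screen for the IS621 bridge recombinase. Each library member carries a reprogrammed 11-nt donor and a full-length LE bridge RNA expressed in cis from the natural promoter, with a paired donor-binding loop (8-nt LDG + 4-nt RDG) and a target-binding loop fixed to T5. It is co-electroporated with a T5 target plasmid; recombinase is induced with 0.07 mM IPTG and recombinants are selected on kanamycin. UMIs are counted as CPM, averaged over two biological replicates and corrected by the unselected control. Molecule = full bridge RNA written as DNA, built from the T5 scaffold: LDG = donor specificity nt 1-8, RDG = reverse complement of nt 8-11.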
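Further: IS621 bridge recombinase in Escherichia coli cells against a fixed T5 target plasmid.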

| Sequence | recombinant UMI read abundance (log10) |
| --- | --- |
| ACAGTATCATGGACCGGTTTTCCCGGTAATCCGTATTTGCA (site TCAGTATCTTA) | 0 |
| ACAGTATCATGGACCGGTTTTCCCGGTAATCCGTATTTGCA (site TCAGTATCTTG) | 2.54 |
| ACAGTATCATGGACCGGTTTTCCCGGTAATCCGTATTTGCA (site TCAGTTTCTTG) | 1.26 |
| ACAGTATCATGGACCGGTTTTCCCGGTAATCCGTATTTGCA (site TCGGTATCTTG) | 0.0345 |
| ACAGTATCATGGACCGGTTTTCCCGGTAATCCGTATTTGCA (site TTAGTATCTTG) | 2.66 |
| ACAGTATCATGGACCGGTTTTCCCGGTAATCCGTATTTGGT (site ACAGTATCTAC) | 2.61 |
| ACAGTATCATGGACCGGTTTTCCCGGTAATCCGTATTTGGT (site ACAGTATCTTG) | 0.731 |
| ACAGTCACATGGACCGGTTTTCCCGGTAATCCGTATTTGCA (site ACAGTATCTTG) | 1.84 |
| ACAGTCACATGGACCGGTTTTCCCGGTAATCCGTATTTGCA (site ACAGTCACTTG) | 2.58 |
| ACAGTCTCATGGACCGGTTTTCCCGGTAATCCGTATTTGCA (site ACAGTATCTTG) | 2.26 |
| ACAGTCTCATGGACCGGTTTTCCCGGTAATCCGTATTTGCA (site ACAGTCTCTTG) | 3.22 |
| ACAGTCTCATGGACCGGTTTTCCCGGTAATCCGTATTTGCA (site ACAGTGTCTTG) | 2.28 |
| ACAGTCTCATGGACCGGTTTTCCCGGTAATCCGTATTTGCA (site ACAGTTTCTTG) | 0.155 |
| ACAGTCTCATGGACCGGTTTTCCCGGTAATCCGTATTTGCT (site ACAGTATCTTG) | 0 |
| ACAGTCTCATGGACCGGTTTTCCCGGTAATCCGTATTTGCT (site ACAGTCTCTAG) | 2.94 |
| ACAGTGCCATGGACCGGTTTTCCCGGTAATCCGTATTTGAG (site ACAGTGCCTCT) | 0.285 |
| ACAGTGCCATGGACCGGTTTTCCCGGTAATCCGTATTTGCA (site ACAGTATCTTG) | 0.852 |
| ACAGTGCCATGGACCGGTTTTCCCGGTAATCCGTATTTGCA (site ACAGTGCCTTG) | 1.38 |
| ACAGTGTCATGGACCGGTTTTCCCGGTAATCCGTATTTGCA (site ACAGTATCTTG) | 3.35 |
| ACAGTGTCATGGACCGGTTTTCCCGGTAATCCGTATTTGCA (site ACAGTCTCTTG) | 2 |
| ACAGTGTCATGGACCGGTTTTCCCGGTAATCCGTATTTGCA (site ACAGTGTCTTG) | 3.29 |
| ACAGTGTCATGGACCGGTTTTCCCGGTAATCCGTATTTGCA (site ACAGTTTCTTG) | 0.818 |
| ACAGTTTCATGGACCGGTTTTCCCGGTAATCCGTATTTGCG (site ACAGTATCTTG) | 0 |
| ACAGTTTCATGGACCGGTTTTCCCGGTAATCCGTATTTGCG (site ACAGTTTCTCG) | 2.64 |

| Sequence | recombinant UMI read abundance (log10) |
| --- | --- |
| ACATACACATGGACCGGTTTTCCCGGTAATCCGTATTTGAG (site ACATACACTCT) | 1.79 |
| ACATACTCATGGACCGGTTTTCCCGGTAATCCGTATTTGCA (site ACATACTCTTG) | 2.8 |
| ACATACTCATGGACCGGTTTTCCCGGTAATCCGTATTTGCA (site CCATACTCTTG) | 2.69 |
| ACATACTCATGGACCGGTTTTCCCGGTAATCCGTATTTGCA (site GCATACTCTTG) | 2.66 |
| ACATACTCATGGACCGGTTTTCCCGGTAATCCGTATTTGCA (site TCATACTCTTG) | 2.8 |
| ACATCTACATGGACCGGTTTTCCCGGTAATCCGTATTTGTC (site ACATCTACTAA) | 0.0236 |
| ACATCTACATGGACCGGTTTTCCCGGTAATCCGTATTTGTC (site ACATCTACTCA) | 0.0109 |
| ACATCTACATGGACCGGTTTTCCCGGTAATCCGTATTTGTC (site ACATCTACTGA) | 0 |
| ACATCTACATGGACCGGTTTTCCCGGTAATCCGTATTTGTC (site ACATCTACTTA) | 0.0124 |
| ACATCTACATGGACCGGTTTTCCCGGTAATCCGTATTTGTT (site ACATCTACTAA) | 0.142 |
| ACATCTACATGGACCGGTTTTCCCGGTAATCCGTATTTGTT (site ACATCTACTCA) | 0.0105 |
| ACATCTACATGGACCGGTTTTCCCGGTAATCCGTATTTGTT (site ACATCTACTGA) | 0 |
| ACATCTACATGGACCGGTTTTCCCGGTAATCCGTATTTGTT (site ACATCTACTTA) | 0.0357 |
| ACATGCACATGGACCGGTTTTCCCGGTAATCCGTATTTGTC (site ACATGCACTGA) | 2.06 |
| ACATGCGCATGGACCGGTTTTCCCGGTAATCCGTATTTGAT (site ACATGCGCTAT) | 2.22 |
| ACATGTACATGGACCGGTTTTCCCGGTAATCCGTATTTGTG (site ACATATACTCA) | 0.616 |
| ACATGTACATGGACCGGTTTTCCCGGTAATCCGTATTTGTG (site ACATCTACTCA) | 0.00614 |
| ACATGTACATGGACCGGTTTTCCCGGTAATCCGTATTTGTG (site ACATGTACTCA) | 1.07 |
| ACATGTACATGGACCGGTTTTCCCGGTAATCCGTATTTGTG (site ACATTTACTCA) | 0 |
| ACATTGTCATGGACCGGTTTTCCCGGTAATCCGTATTTGCA (site ACAGTATCTTG) | 1.37 |
| ACATTGTCATGGACCGGTTTTCCCGGTAATCCGTATTTGCA (site ACATTGTCTTG) | 2.75 |
| ACCAAGTCATGGACCGGTTTTCCCGGTAATCCGTATTTGTG (site ACCAAGTCTCA) | 2.15 |
| ACCAATTCATGGACCGGTTTTCCCGGTAATCCGTATTTGCT (site ACCAATTCTAG) | 2.42 |
| ACCACGACATGGACCGGTTTTCCCGGTAATCCGTATTTGAC (site ACCACGACTGT) | 2.72 |

| Sequence | recombinant UMI read abundance (log10) |
| --- | --- |
| ACCAGCCCATGGACCGGTTTTCCCGGTAATCCGTATTTGCT (site ACCAGCCCTAG) | 0.0684 |
| ACCCCAACATGGACCGGTTTTCCCGGTAATCCGTATTTGAC (site ACCCCAACTGT) | 2.49 |
| ACCCGTCCATGGACCGGTTTTCCCGGTAATCCGTATTTGAT (site AACCGTCCTAT) | 0.00657 |
| ACCCGTCCATGGACCGGTTTTCCCGGTAATCCGTATTTGAT (site ACCCGTCCTAT) | 0.224 |
| ACCCGTCCATGGACCGGTTTTCCCGGTAATCCGTATTTGAT (site AGCCGTCCTAT) | 0.0209 |
| ACCCGTCCATGGACCGGTTTTCCCGGTAATCCGTATTTGAT (site ATCCGTCCTAT) | 0.015 |
| ACCCGTCCATGGACCGGTTTTCCCGGTAATCCGTATTTGTA (site ACCCGTCCTTA) | 0.613 |
| ACCGTCTCATGGACCGGTTTTCCCGGTAATCCGTATTTGCA (site ACAGTATCTTG) | 0.902 |
| ACCGTCTCATGGACCGGTTTTCCCGGTAATCCGTATTTGCA (site ACCGTCTCTTG) | 2.85 |
| ACCGTGACATGGACCGGTTTTCCCGGTAATCCGTATTTGCA (site ACCGTGACTTG) | 2.4 |
| ACCTAGACATGGACCGGTTTTCCCGGTAATCCGTATTTGGG (site AACTAGACTCC) | 0.0442 |
| ACCTAGACATGGACCGGTTTTCCCGGTAATCCGTATTTGGG (site ACATAGACTCC) | 0.00696 |
| ACCTAGACATGGACCGGTTTTCCCGGTAATCCGTATTTGGG (site ACCAAGACTCC) | 0.00495 |
| ACCTAGACATGGACCGGTTTTCCCGGTAATCCGTATTTGGG (site ACCCAGACTCC) | 0.00611 |
| ACCTAGACATGGACCGGTTTTCCCGGTAATCCGTATTTGGG (site ACCGAGACTCC) | 0 |
| ACCTAGACATGGACCGGTTTTCCCGGTAATCCGTATTTGGG (site ACCTAAACTCC) | 0 |
| ACCTAGACATGGACCGGTTTTCCCGGTAATCCGTATTTGGG (site ACCTACACTCC) | 0.0139 |
| ACCTAGACATGGACCGGTTTTCCCGGTAATCCGTATTTGGG (site ACCTAGACTAC) | 0.0239 |
| ACCTAGACATGGACCGGTTTTCCCGGTAATCCGTATTTGGG (site ACCTAGACTCA) | 0.0191 |
| ACCTAGACATGGACCGGTTTTCCCGGTAATCCGTATTTGGG (site ACCTAGACTCC) | 0.0334 |
| ACCTAGACATGGACCGGTTTTCCCGGTAATCCGTATTTGGG (site ACCTAGACTCG) | 0.634 |
| ACCTAGACATGGACCGGTTTTCCCGGTAATCCGTATTTGGG (site ACCTAGACTCT) | 0.00788 |
| ACCTAGACATGGACCGGTTTTCCCGGTAATCCGTATTTGGG (site ACCTAGACTGC) | 0.00778 |
| ACCTAGACATGGACCGGTTTTCCCGGTAATCCGTATTTGGG (site ACCTAGACTTC) | 0.00986 |
